Measured values as given in patent US20260256792A1, “TREATMENT OF CHRONIC SPONTANEOUS URTICARIA BY ADMINISTERING (R)-2-[3-[4-AMINO-3-(2-FLUORO-4-PHENOXY-PHENYL)PYRAZOLO[3,4-D]PYRIMIDIN-1-YL]PIPERIDINE-1-CARBONYL]-4-METHYL-4-[4-(OXETAN-3-YL)PIPERAZIN-1-YL]PENT-2-ENENITRILE” (priority 2023, published 2026).

System: angioedema in CSU patients
Experiment: Phase 2 CSU study: angioedema activity score over 7 days (AAS7)
Format: in vivo, human
Design: AAS7, Median / AAS7 Change from baseline, Median: scale not given here
Excerpt: The study comprises a 12 week, randomized, double-blind, placebo-controlled, multi-center, dose-ranging efficacy and safety phase, followed by a 40 week open label extension (OLE) phase (see FIG. 1). The study consists of three phases and an optional OLE phase. […] The weekly angioedema activity score (AAS7) was proposed as a tertiary endpoint. […] Patients were to complete the AAS using the e-diary. The e-diary was to be used once daily on the same time of each day recording of participant's answers to the angioedema activity score over 7 days (AAS7) questionnaire.

[1] = Patients with Prior Omalizumab Use, 400 mg TID, Week 1
[2] = Patients with Prior Omalizumab Use, 400 mg TID, Week 2
[3] = Patients with Prior Omalizumab Use, 400 mg TID, Week 3
[4] = Patients with Prior Omalizumab Use, 400 mg TID, Week 4
[5] = Patients with Prior Omalizumab Use, 400 mg TID, Week 5
[6] = Patients with Prior Omalizumab Use, 400 mg TID, Week 6
[7] = Patients with Prior Omalizumab Use, 400 mg TID, Week 7
[8] = Patients with Prior Omalizumab Use, 400 mg TID, Week 8
[9] = Week 8, 400 mg BID, Incomplete Responders with angioedema at baseline, double-blind period
[10] = Week 8, 400 mg QPM, Incomplete Responders with angioedema at baseline, double-blind period
[11] = Week 8, 400 mg TID, Incomplete Responders with angioedema at baseline, double-blind period
[12] = Week 9, 400 mg BID, Incomplete Responders with angioedema at baseline, double-blind period
[13] = Week 9, 400 mg QPM, Incomplete Responders with angioedema at baseline, double-blind period
[14] = Week 9, 400 mg TID, Incomplete Responders with angioedema at baseline, double-blind period
[15] = Week 10, 400 mg BID, Incomplete Responders with angioedema at baseline, double-blind period
[16] = Week 10, 400 mg QPM, Incomplete Responders with angioedema at baseline, double-blind period
[17] = Week 10, 400 mg TID, Incomplete Responders with angioedema at baseline, double-blind period
[18] = Week 11, 400 mg BID, Incomplete Responders with angioedema at baseline, double-blind period
[19] = Week 11, 400 mg QPM, Incomplete Responders with angioedema at baseline, double-blind period
[20] = Week 11, 400 mg TID, Incomplete Responders with angioedema at baseline, double-blind period
[21] = Week 12, 400 mg BID, Incomplete Responders with angioedema at baseline, double-blind period
[22] = Week 12, 400 mg QPM, Incomplete Responders with angioedema at baseline, double-blind period
[23] = Week 12, 400 mg TID, Incomplete Responders with angioedema at baseline, double-blind period

CC(C)(C=C(C#N)C(=O)N1CCC[C@@H](n2nc(-c3ccc(Oc4ccccc4)cc3F)c3c(N)ncnc32)C1)N1CCN(C2COC2)CC1 [rilzabrutinib, (R)-2-[3-[4-amino-3-(2-fluoro-4-phenoxy-phenyl)pyrazolo[3,4-d]pyrimidin-1-yl]piperidine-1-carbonyl]-4-methyl-4-[4-(oxetan-3-yl)piperazin-1-yl]pent-2-enenitrile]
AAS7 Change from baseline, Median (Patients with Prior Omalizumab Use, 400 mg QPM, Week 8): −50.00
AAS7, Mean (SD) [1]: 6.33 (7.77)
AAS7, Median [1]: 4.00
AAS7 Change from baseline, Median [1]: −25.83
AAS7 Percent change from baseline, Mean (SD) [1]: −79.91 (18.61) %
AAS7 Percent change from baseline, Median [1]: −76.47%
AAS7, Mean (SD) [2]: 4.00 (6.93)
AAS7, Median [2]: 0.00
AAS7 Change from baseline, Mean (SD) [2]: −27.28 (19.44)
AAS7 Change from baseline, Median [2]: −36.00
AAS7 Percent change from baseline, Mean (SD) [2]: −76.47 (40.75) %
AAS7 Percent change from baseline, Median [2]: −100.00%
AAS7, Mean (SD) [3]: 7.00 (7.00)
AAS7, Median [3]: 7.00
AAS7 Change from baseline, Mean (SD) [3]: −24.28 (18.46)
AAS7 Change from baseline, Median [3]: −33.83
AAS7 Percent change from baseline, Mean (SD) [3]: −66.83 (43.45) %
AAS7 Percent change from baseline, Median [3]: −82.86%
AAS7, Mean (SD) [4]: 7.11 (6.30)
AAS7, Median [4]: 9.33
AAS7 Change from baseline, Mean (SD) [4]: −24.17 (16.75)
AAS7 Change from baseline, Median [4]: −31.50
AAS7 Percent change from baseline, Mean (SD) [4]: −68.85 (36.02) %
AAS7 Percent change from baseline, Median [4]: −77.14%
AAS7, Median [5]: 19.83
AAS7 Change from baseline, Mean (SD) [5]: −18.00 (19.67)
AAS7 Change from baseline, Median [5]: −21.00
AAS7 Percent change from baseline, Mean (SD) [5]: −44.59 (59.12) %
AAS7 Percent change from baseline, Median [5]: −51.43%
AAS7, Mean (SD) [6]: 7.00 (8.19)
AAS7, Median [6]: 5.00
AAS7 Change from baseline, Mean (SD) [6]: −24.28 (20.16)
AAS7 Change from baseline, Median [6]: −35.83
AAS7 Percent change from baseline, Mean (SD) [6]: −64.55 (51.17) %
AAS7 Percent change from baseline, Median [6]: −87.76%
AAS7, Mean (SD) [7]: 9.72 (16.84)
AAS7, Median [7]: 0.00
AAS7 Change from baseline, Mean (SD) [7]: −21.56 (12.79)
AAS7 Change from baseline, Median [7]: −17.00
AAS7 Percent change from baseline, Mean (SD) [7]: −76.19 (41.24) %
AAS7 Percent change from baseline, Median [7]: −100.00%
AAS7, Mean (SD) [8]: 4.67 (7.23)
AAS7, Median [8]: 1.00
AAS7 Change from baseline, Mean (SD) [8]: −26.61 (19.68)
AAS7 Change from baseline, Median [8]: −36.00
AAS7 Percent change from baseline, Mean (SD) [9]: −100.00 (0.00)
AAS7 Percent change from baseline, Median [9]: −100.00
AAS7 Percent change from baseline, Mean (SD) [10]: −73.53 (NC)
AAS7 Percent change from baseline, Median [10]: −73.53
AAS7 Percent change from baseline, Mean (SD) [11]: −73.69 (43.46)
AAS7 Percent change from baseline, Median [11]: −97.55
AAS7, Mean (SD) [12]: 0.00 (0.00)
AAS7, Median [12]: 0.00
AAS7 Change from baseline, Mean (SD) [12]: −39.50 (3.54)
AAS7 Change from baseline, Median [12]: −39.50
AAS7 Percent change from baseline, Mean (SD) [12]: −100.00 (0.00)
AAS7 Percent change from baseline, Median [12]: −100.00
AAS7, Mean (SD) [13]: 10.00 (NC)
AAS7 Change from baseline, Mean (SD) [13]: −58.00 (NC)
AAS7 Change from baseline, Median [13]: −58.00
AAS7 Percent change from baseline, Mean (SD) [13]: −85.29 (NC)
AAS7 Percent change from baseline, Median [13]: −85.29
AAS7, Mean (SD) [14]: 4.39 (6.62)
AAS7, Median [14]: 1.17
AAS7 Change from baseline, Mean (SD) [14]: −26.89 (19.04)
AAS7 Change from baseline, Median [14]: −36.00
AAS7 Percent change from baseline, Mean (SD) [14]: −75.52 (39.95)
AAS7 Percent change from baseline, Median [14]: −97.14
AAS7, Mean (SD) [15]: 0.00 (0.00)
AAS7, Median [15]: 0.00
AAS7 Change from baseline, Mean (SD) [15]: −39.50 (3.54)
AAS7 Change from baseline, Median [15]: −39.50
AAS7 Percent change from baseline, Mean (SD) [15]: −100.00 (0.00)
AAS7 Percent change from baseline, Median [15]: −100.00
AAS7, Mean (SD) [16]: 0.00 (NC)
AAS7, Median [16]: 0.00
AAS7 Change from baseline, Mean (SD) [16]: −68.00 (NC)
AAS7 Change from baseline, Median [16]: −68.00
AAS7 Percent change from baseline, Mean (SD) [16]: −100.00 (NC)
AAS7 Percent change from baseline, Median [16]: −100.00
AAS7, Mean (SD) [17]: 9.00 (10.15)
AAS7, Median [17]: 7.00
AAS7 Change from baseline, Mean (SD) [17]: −22.28 (21.92)
AAS7 Change from baseline, Median [17]: −33.83
AAS7 Percent change from baseline, Mean (SD) [17]: −55.07 (63.56)
AAS7 Percent change from baseline, Median [17]: −82.86
AAS7, Mean (SD) [18]: 0.00 (0.00)
AAS7, Median [18]: 0.00
AAS7 Change from baseline, Mean (SD) [18]: −39.50 (3.54)
AAS7 Change from baseline, Median [18]: −39.50
AAS7 Percent change from baseline, Mean (SD) [18]: −100.00 (0.00)
AAS7 Percent change from baseline, Median [18]: −100.00
AAS7, Mean (SD) [19]: 0.00 (NC)
AAS7, Median [19]: 0.00
AAS7 Change from baseline, Mean (SD) [19]: −68.00 (NC)
AAS7 Change from baseline, Median [19]: −68.00
AAS7 Percent change from baseline, Mean (SD) [19]: −100.00 (NC)
AAS7 Percent change from baseline, Median [19]: −100.00
AAS7, Median [20]: 0.00
AAS7 Change from baseline, Mean (SD) [20]: −24.61 (24.03)
AAS7 Change from baseline, Median [20]: −36.00
AAS7 Percent change from baseline, Mean (SD) [20]: −60.78 (67.92)
AAS7 Percent change from baseline, Median [20]: −100.00
AAS7, Mean (SD) [21]: 0.00 (0.00)
AAS7, Median [21]: 0.00
AAS7 Change from baseline, Mean (SD) [21]: −39.50 (3.54)
AAS7 Change from baseline, Median [21]: −39.50
AAS7 Percent change from baseline, Mean (SD) [21]: −100.00 (0.00)
AAS7 Percent change from baseline, Median [21]: −100.00
AAS7, Mean (SD) [22]: 5.00 (NC)
AAS7, Median [22]: 5.00
AAS7 Change from baseline, Mean (SD) [22]: −63.00 (NC)
AAS7 Change from baseline, Median [22]: −63.00
AAS7 Percent change from baseline, Mean (SD) [22]: −92.65 (NC)
AAS7 Percent change from baseline, Median [22]: −92.65
AAS7 Change from baseline, Mean (SD) [23]: −16.50 (27.58)
AAS7 Change from baseline, Median [23]: −16.50
AAS7 Percent change from baseline, Mean (SD) [23]: −41.18 (83.19)
AAS7 Percent change from baseline, Median [23]: −41.18
